Key:
Melanocortin receptor 4 [1] = molecular target: T1, Melanocortin receptor 4 (Homo sapiens, UniProt P32245); experiment: Binding affinity towards human melanocortin 4 receptor expressed in HEK 293 cells was determined by using [125I]NDP-MSH as radioligand; type: cell-based, HEK293
Cell line [2] = experiment: Percentage of alpha-MSH stimulated cAMP level at 10 uM; type: functional, Homo sapiens
Cell line [3] = experiment: Effective concentration required for alpha-MSH stimulated cAMP production at 10 uM; type: functional, cell-based; conditions: Homo sapiens
Cell line [4] = experiment: Concentration required for inhibition of alpha-MSH stimulated cAMP production by 50%; type: functional, cell-based; conditions: Homo sapiens
Melanocortin receptor 3 = Melanocortin receptor 3 (Homo sapiens, UniProt P41968); experiment: Binding affinity towards human melanocortin 3 receptor expressed in HEK 293 cells was determined by using [125I]NDP-MSH as radioligand; type: cell-based, HEK293
Melanocortin receptor 5 = Melanocortin receptor 5 (Homo sapiens, UniProt P33032); experiment: Binding affinity towards human melanocortin 5 receptor expressed in HEK 293 cells was determined by using [125I]NDP-MSH as radioligand; type: cell-based, HEK293
[5] = molecular target: T2, Melanocyte-stimulating hormone receptor (Homo sapiens, UniProt Q01726); experiment: Percent inhibition of [125I]NDP-MSH binding to human melanocortin 1 receptor expressed in HEK 293 cells at 10 uM; type: cell-based; conditions: HEK293
Target sequence in this assay (Q01726 whole entry, looked up): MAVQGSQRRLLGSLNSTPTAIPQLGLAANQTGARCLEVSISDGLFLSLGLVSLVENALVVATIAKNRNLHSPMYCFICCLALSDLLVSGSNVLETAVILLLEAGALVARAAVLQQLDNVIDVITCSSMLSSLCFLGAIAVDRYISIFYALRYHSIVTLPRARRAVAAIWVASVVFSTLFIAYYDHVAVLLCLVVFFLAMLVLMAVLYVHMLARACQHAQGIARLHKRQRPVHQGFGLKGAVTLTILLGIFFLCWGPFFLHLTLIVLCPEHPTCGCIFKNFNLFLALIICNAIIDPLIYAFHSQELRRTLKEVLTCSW

[6] = Tested for inhibition of NDP-MSH binding; type: functional
Melanocortin receptor 4 [7] = molecular target: T1, Melanocortin receptor 4; experiment: Tested for inhibition of binding to MC4 receptor
Cell line [8] = experiment: Effective concentration required for alpha-MSH stimulated cAMP production; type: functional, cell-based; conditions: Homo sapiens
[9] = molecular target: T2, Melanocyte-stimulating hormone receptor; experiment: Binding affinity towards human melanocortin 1 receptor expressed in HEK 293 cells was determined by using [125I]NDP-MSH as radioligand; type: cell-based, HEK293
Target sequence in this assay (Q01726 whole entry): as the sequence (Q01726 whole entry, looked up) above

T1 sequence (P32245 whole entry): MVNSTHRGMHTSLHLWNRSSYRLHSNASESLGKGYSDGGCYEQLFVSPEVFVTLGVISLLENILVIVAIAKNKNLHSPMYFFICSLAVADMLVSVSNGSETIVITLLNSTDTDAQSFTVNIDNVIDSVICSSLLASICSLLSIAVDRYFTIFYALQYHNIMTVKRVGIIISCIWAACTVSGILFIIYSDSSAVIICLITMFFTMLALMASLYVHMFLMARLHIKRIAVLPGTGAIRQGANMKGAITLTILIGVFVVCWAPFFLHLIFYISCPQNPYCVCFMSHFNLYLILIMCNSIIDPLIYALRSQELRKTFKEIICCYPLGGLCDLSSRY
Chain of Melanocortin receptor 5 (P33032 whole entry): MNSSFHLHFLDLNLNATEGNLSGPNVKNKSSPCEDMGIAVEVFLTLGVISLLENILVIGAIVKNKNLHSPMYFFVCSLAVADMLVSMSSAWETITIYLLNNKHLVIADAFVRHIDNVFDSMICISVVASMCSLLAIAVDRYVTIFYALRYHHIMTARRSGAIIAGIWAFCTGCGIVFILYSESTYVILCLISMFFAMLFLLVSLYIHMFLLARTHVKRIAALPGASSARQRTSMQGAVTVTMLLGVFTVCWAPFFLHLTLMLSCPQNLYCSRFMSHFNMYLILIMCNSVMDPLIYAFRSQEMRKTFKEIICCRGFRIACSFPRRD
Chain of Melanocortin receptor 3 (P41968 whole entry): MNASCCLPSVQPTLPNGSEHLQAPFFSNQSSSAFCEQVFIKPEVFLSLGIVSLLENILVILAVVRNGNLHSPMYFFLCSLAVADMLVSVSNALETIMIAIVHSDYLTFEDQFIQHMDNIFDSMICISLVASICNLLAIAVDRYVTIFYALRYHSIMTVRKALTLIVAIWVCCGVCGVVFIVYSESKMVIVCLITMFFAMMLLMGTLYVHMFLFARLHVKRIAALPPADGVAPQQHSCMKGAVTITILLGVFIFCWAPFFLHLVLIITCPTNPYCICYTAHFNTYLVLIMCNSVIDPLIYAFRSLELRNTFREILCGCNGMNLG

SMILES	Ki (Melanocortin receptor 4 [1]) [nM]	IA (Cell line [2]) [%]	EC50 (Cell line [3]) [nM]	also measured
CC(Nc1ccccc1N)c1ccccc1N1CCN(C(=O)[C@@H](Cc2ccc(Cl)cc2)NC(=O)CCN)CC1 (some centres not stated)	470	56	2720	
NCCC(=O)OC(Cc1ccc(Cl)cc1)C(=O)N1CCN(c2ccccc2CNCCc2cccs2)CC1 (configuration not stated)	290	<45		
CC(C)(C(=O)N1CCN(c2ccccc2CNCCc2cccs2)CC1)c1ccc(Cl)cc1	3800	<45		
COCC(=O)N[C@H](Cc1ccc(Cl)cc1)C(=O)N1CCN(c2ccccc2CNCCc2cccs2)CC1	70	16		
O=C(N[C@H](Cc1ccc(Cl)cc1)C(=O)N1CCN(c2ccccc2CNCCc2cccs2)CC1)C1CCN1 (some centres not stated)	48	47	1630	
O=C(N[C@H](Cc1ccc(Cl)cc1)C(=O)N1CCN(c2ccccc2CNCCc2cccs2)CC1)c1cccnc1	41	5		IC50 (Cell line [4]): 880 nM; Ki (Melanocortin receptor 3): 1800 nM; Ki (Melanocortin receptor 5): 730 nM; inhibition [5]: 23%
O=C(N[C@H](Cc1ccc(Cl)cc1)C(=O)N1CCN(c2ccccc2CNCCc2cccs2)CC1)C1CCCCN1 (some centres not stated)	75	60	1100	
N[C@H](Cc1ccc(Cl)cc1)C(=O)N1CCN(c2ccccc2CNCCc2cccs2)CC1	600	85	8700	
CC(NCCNc1cccc2ccccc12)c1ccccc1N1CCN(C(=O)[C@@H](Cc2ccc(Cl)cc2)NC(=O)CCN)CC1 (some centres not stated)	290	22		
O=C([C@@H](Cc1ccc(Cl)cc1)NS(=O)(=O)CC(F)(F)F)N1CCN(c2ccccc2CNCCc2cccs2)CC1	410	<45		
CC(C)CC(N)C(=O)N[C@H](Cc1ccc(Cl)cc1)C(=O)N1CCN(c2ccccc2CNCCc2cccs2)CC1 (some centres not stated)	30	45	2600	
NCC(=O)N[C@H](Cc1ccc(Cl)cc1)C(=O)N1CCN(c2ccccc2CNCCc2cccs2)CC1	44	77	580	Ki (Melanocortin receptor 3): 1900 nM; Ki (Melanocortin receptor 5): 990 nM; inhibition [5]: 50%
NC(Cc1ccc(Cl)cc1)C(=O)N1CCN(c2ccccc2CNCCc2cccs2)CC1 (configuration not stated)	3900	<45		
CC(NCCc1cccs1)c1ccccc1N1CCN(C(=O)[C@@H](Cc2ccc(Cl)cc2)NC(=O)CCN)CC1 (some centres not stated)	110	32		
NC(C(=O)N1CCN(c2ccccc2CNCCc2cccs2)CC1)c1ccc(Cl)cc1 (configuration not stated)	1800	<45		
O=C(C(O)c1ccc(Cl)cc1)N1CCN(c2ccccc2CNCCc2cccs2)CC1 (configuration not stated)	> 10000	<45		
CC(CN1CCN(CC(c2ccc(F)cc2)N2CCN(C)CC2)CC1)C(=O)c1ccccc1 (configuration not stated)				IC50 [6]: 220 nM
CN(CCc1cccs1)Cc1ccccc1N1CCN(C(=O)[C@@H](Cc2ccc(Cl)cc2)NC(=O)CCN)CC1	220	32		
COc1ccc2ccccc2c1CCCCN1CCN(CC(c2ccc(F)cc2)N2CCN(C)CC2)CC1 (configuration not stated)				Ki (Melanocortin receptor 4 [7]): 7.9 nM
CC(NC1CCCNC1)c1ccccc1N1CCN(C(=O)[C@@H](Cc2ccc(Cl)cc2)NC(=O)[C@H]2Cc3ccccc3CN2)CC1 (some centres not stated)				EC50 (Cell line [8]): 3.8 nM
CC(NCc1ccccc1N)c1ccccc1N1CCN(C(=O)[C@@H](Cc2ccc(Cl)cc2)NC(=O)CCN)CC1 (some centres not stated)	120	100	364	
COc1ccc(Br)cc1CCc1c(Cl)cccc1-c1nc(C)c[nH]1				Ki (Melanocortin receptor 4 [7]): 180 nM
O=C(N[C@H](Cc1ccc(Cl)cc1)C(=O)N1CCN(c2ccccc2CNCCc2cccs2)CC1)[C@H]1Cc2ccccc2CN1		100	320	

SMILES	Ki (Melanocortin receptor 4 [1]) [nM]	IA (Cell line [2]) [%]	EC50 (Cell line [3]) [nM]	also measured
O=C(CC1CCCN1)N[C@H](Cc1ccc(Cl)cc1)C(=O)N1CCN(c2ccccc2CNCCc2cccs2)CC1 (some centres not stated)	40	57	1800	
CN(C)CC(=O)N[C@H](Cc1ccc(Cl)cc1)C(=O)N1CCN(c2ccccc2CNCCc2cccs2)CC1	38	45	1400	
COc1ccc(Br)cc1CCc1c(F)cccc1-c1ncc[nH]1				Ki (Melanocortin receptor 4 [7]): 160 nM
NC(Cc1ccccc1Cl)C(=O)N1CCN(c2ccccc2CNCCc2cccs2)CC1 (configuration not stated)	1000	<45		
NCC(Cc1ccc(Cl)cc1)C(=O)N1CCN(c2ccccc2CNCCc2cccs2)CC1 (configuration not stated)	6400	<45		
CC(c1ccccc1N1CCN(C(=O)[C@@H](Cc2ccc(Cl)cc2)NC(=O)CCN)CC1)N1CCN(C)CC1 (some centres not stated)	86	59	471	
CC(c1ccccc1N1CCN(C(=O)[C@@H](Cc2ccc(Cl)cc2)NC(=O)CCN)CC1)N1CCN(c2ccccc2)CC1 (some centres not stated)	430	35		
NC(CC(=O)N1CCN(c2ccccc2CNCCc2cccs2)CC1)c1ccc(Cl)cc1 (configuration not stated)	5400	<45		
CC(C)(N)C(=O)N[C@H](Cc1ccc(Cl)cc1)C(=O)N1CCN(c2ccccc2CNCCc2cccs2)CC1	66	80	1500	
O=C(CCc1ccc(Cl)cc1)N1CCN(c2ccccc2CNCCc2cccs2)CC1	1000	<45		
CC(NCCN1CCCCC1)c1ccccc1N1CCN(C(=O)[C@@H](Cc2ccc(Cl)cc2)NC(=O)CCN)CC1 (some centres not stated)	210	41		
O=C(N[C@H](Cc1ccc(Cl)cc1)C(=O)N1CCN(c2ccccc2CNCCc2cccs2)CC1)C1CCCNC1 (some centres not stated)	15	12		IC50 (Cell line [4]): 36 nM; Ki [9]: 2300 nM; Ki (Melanocortin receptor 3): 1400 nM; Ki (Melanocortin receptor 5): 720 nM
O=C(N[C@H](Cc1ccc(Cl)cc1)C(=O)N1CCN(c2ccccc2CNCCc2cccs2)CC1)C1CCNCC1	26	39		
CCC(NCCc1cccs1)c1ccccc1N1CCN(C(=O)[C@@H](Cc2ccc(Cl)cc2)NC(=O)CCN)CC1 (some centres not stated)	140	29		
CC(NCc1ccco1)c1ccccc1N1CCN(C(=O)[C@@H](Cc2ccc(Cl)cc2)NC(=O)CCN)CC1 (some centres not stated)	140	99	1870	
CC(N[C@@H]1CCCC[C@H]1N)c1ccccc1N1CCN(C(=O)[C@@H](Cc2ccc(Cl)cc2)NC(=O)CCN)CC1 (some centres not stated)	150	64	590	
O=C(N[C@H](Cc1ccc(Cl)cc1)C(=O)N1CCN(c2ccccc2Cn2cncn2)CC1)[C@H]1Cc2ccccc2CN1				EC50 (Cell line [8]): 80 nM
NCCC(=O)N[C@H](Cc1ccc(Cl)cc1)C(=O)N1CCN(c2ccccc2CNCCc2cccs2)CC1	21	14		IC50 (Cell line [4]): 90 nM; Ki [9]: 1300 nM; Ki (Melanocortin receptor 3): 1000 nM; Ki (Melanocortin receptor 5): 1000 nM
NCCCC(=O)N[C@H](Cc1ccc(Cl)cc1)C(=O)N1CCN(c2ccccc2CNCCc2cccs2)CC1	14	15		IC50 (Cell line [4]): 66 nM; Ki [9]: 1200 nM; Ki (Melanocortin receptor 3): 1400 nM; Ki (Melanocortin receptor 5): 1000 nM
NC1(C(=O)N[C@H](Cc2ccc(Cl)cc2)C(=O)N2CCN(c3ccccc3CNCCc3cccs3)CC2)CC1	46	12		
O=C(Cc1ccc(Cl)cc1)N1CCN(c2ccccc2CNCCc2cccs2)CC1	> 10000	<45		
O=C(N[C@H](Cc1ccc(Cl)cc1)C(=O)N1CCN(c2ccccc2CNCCc2cccs2)CC1)C1CCCN1 (some centres not stated)	50	56	1900	

— ChEMBL document CHEMBL1137106, “Piperazinebenzylamines as potent and selective antagonists of the human melanocortin-4 receptor” (Bioorg Med Chem Lett, 2004)
